Test results as given in publication PMC11011526, “Identification of Inhibitors of the Disease-Associated Protein Phosphatase Scp1 Using Antibody Mimetic Molecules” (International Journal of Molecular Sciences, 2024).
Blank lines part the entries; values can stand above or below the molecule they belong to.

Legend:
Scp1 [1] = target: T1, Scp1 (Homo sapiens, UniProt Q9GZU7); experiment: competition ELISA against FG-1Adn binding; conditions: 100 µM rabeprazole; 20 mM Na-maleate pH 5.5, 150 mM NaCl, 10 mM MgCl2; R.T.; indirect, displacement of adnectin FG-1Adn
T1 construct: gene CTDSP1; recombinant in E. coli Rosetta, Talon purified; His6-Scp1 (kinetics) or GST-Scp1-Myc-His6 (specificity assay)
T1 sequence (Q9GZU7 1-261): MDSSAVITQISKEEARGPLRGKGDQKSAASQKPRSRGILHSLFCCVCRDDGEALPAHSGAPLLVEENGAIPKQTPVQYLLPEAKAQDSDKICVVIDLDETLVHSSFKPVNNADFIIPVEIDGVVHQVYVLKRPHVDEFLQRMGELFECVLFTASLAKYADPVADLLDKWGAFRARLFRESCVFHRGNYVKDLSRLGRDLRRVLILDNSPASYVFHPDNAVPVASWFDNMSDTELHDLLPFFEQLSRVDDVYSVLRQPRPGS

Scp3 = target: T2, Scp3 (Homo sapiens, UniProt O15194); experiment: colorimetric pNPP phosphatase assay, absorbance […] nm; type: biochemical; conditions: 20 mM Na-maleate pH 5.5, 10 mM MgCl2; 10 mM pNPP; 37 °C; 7 min
T2 construct: gene CTDSPL; recombinant, GST tag and Myc-His6 tag
T2 sequence (O15194 1-276): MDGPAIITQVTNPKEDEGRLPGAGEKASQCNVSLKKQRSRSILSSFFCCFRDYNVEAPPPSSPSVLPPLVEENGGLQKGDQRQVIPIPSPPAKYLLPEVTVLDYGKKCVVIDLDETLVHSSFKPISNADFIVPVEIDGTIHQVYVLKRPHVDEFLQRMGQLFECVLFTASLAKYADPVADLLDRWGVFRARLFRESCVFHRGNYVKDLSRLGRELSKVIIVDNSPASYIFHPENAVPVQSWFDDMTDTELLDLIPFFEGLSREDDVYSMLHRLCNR

Scp1 [2] = target: T1, Scp1; experiment: as above; type: biochemical; conditions: 20 mM Na-maleate pH 5.5, 10 mM MgCl2; His6-Scp1 10 nM; no added adnectin
Scp2 = target: T3, Scp2 (Homo sapiens, UniProt O14595); experiment: as above; type: biochemical; conditions: 20 mM Na-maleate pH 5.5, 10 mM MgCl2; 10 mM pNPP; 37 °C; 7 min
T3 construct: gene CTDSP2; recombinant, GST tag and Myc-His6 tag
T3 sequence (O14595 1-271): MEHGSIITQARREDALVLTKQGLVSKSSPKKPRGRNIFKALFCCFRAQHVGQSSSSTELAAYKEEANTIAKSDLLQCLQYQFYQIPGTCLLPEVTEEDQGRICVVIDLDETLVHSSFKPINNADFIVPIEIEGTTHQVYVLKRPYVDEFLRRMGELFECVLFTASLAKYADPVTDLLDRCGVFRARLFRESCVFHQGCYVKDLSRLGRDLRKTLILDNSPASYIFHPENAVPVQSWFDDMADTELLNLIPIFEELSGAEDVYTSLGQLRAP

Fcp1 = target: T4, Fcp1 (Homo sapiens, UniProt Q9Y5B0); experiment: as above; type: biochemical; conditions: 20 mM Na-maleate pH 5.5, 10 mM MgCl2; 10 mM pNPP; 37 °C; 60 min
T4 construct: gene CTDP1; recombinant, GST tag and Myc-His6 tag
T4 sequence (Q9Y5B0 1-961): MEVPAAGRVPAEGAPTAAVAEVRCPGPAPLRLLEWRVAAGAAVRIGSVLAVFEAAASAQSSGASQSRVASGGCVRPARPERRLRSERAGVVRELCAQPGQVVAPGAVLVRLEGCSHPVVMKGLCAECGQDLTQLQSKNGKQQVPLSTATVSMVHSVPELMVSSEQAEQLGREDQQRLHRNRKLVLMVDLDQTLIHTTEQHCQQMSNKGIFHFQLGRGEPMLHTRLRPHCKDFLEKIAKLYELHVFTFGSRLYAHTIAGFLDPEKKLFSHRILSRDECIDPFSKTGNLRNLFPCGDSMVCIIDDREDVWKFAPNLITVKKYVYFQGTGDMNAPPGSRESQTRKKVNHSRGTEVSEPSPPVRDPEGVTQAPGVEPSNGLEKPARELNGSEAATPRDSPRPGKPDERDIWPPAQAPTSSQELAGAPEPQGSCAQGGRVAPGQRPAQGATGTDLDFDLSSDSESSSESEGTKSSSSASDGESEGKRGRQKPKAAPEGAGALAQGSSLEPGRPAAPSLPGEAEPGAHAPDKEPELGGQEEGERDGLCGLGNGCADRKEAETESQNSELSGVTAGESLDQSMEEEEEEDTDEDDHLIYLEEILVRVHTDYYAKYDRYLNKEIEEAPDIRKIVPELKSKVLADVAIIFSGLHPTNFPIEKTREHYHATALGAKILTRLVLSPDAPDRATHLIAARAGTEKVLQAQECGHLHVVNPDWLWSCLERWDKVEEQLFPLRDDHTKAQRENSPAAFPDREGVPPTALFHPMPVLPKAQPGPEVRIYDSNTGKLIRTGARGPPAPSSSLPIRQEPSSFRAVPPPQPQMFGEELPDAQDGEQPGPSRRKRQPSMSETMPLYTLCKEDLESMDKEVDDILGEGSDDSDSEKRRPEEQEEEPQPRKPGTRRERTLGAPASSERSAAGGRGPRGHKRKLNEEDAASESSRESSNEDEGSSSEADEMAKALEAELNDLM

FG-1Adn (human) = experiment: BLI; BLItz system, Advanced Kinetics mode; biotinylated FG-1Adn loaded on streptavidin biosensors; 20 mM Na-maleate (pH 5.5), 150 mM NaCl, 10 mM MgCl2, 0.05% Tween; 250 nM Scp1, 120 s association, 120 s dissociation; 1:1 Langmuir model

Molecule: COCCCOc1ccnc(C[S+]([O-])c2nc3ccccc3[nH]2)c1C (stereo not drawn) [rabeprazole]
- almost complete inhibition of FG-1Adn binding (Scp1 [1]): rabeprazole almost completely inhibited the binding of FG-1Adn to Scp1

Molecule: O=[N+]([O-])c1ccc(OP(=O)(O)O)cc1 [pNPP]
- colorimetric pNPP phosphatase assay, absorbance 410 nm (Scp3): inhibitory effects of FG-1Adn inhibition against FCP/SCP phosphatases using pNPP as a substrate
- colorimetric pNPP phosphatase assay, absorbance 410 nm (Scp1 [2]): Lineweaver–Burk plot analysis was performed using pNPP as a substrate
- colorimetric pNPP phosphatase assay, absorbance 410 nm (Scp2): inhibitory effects of FG-1Adn inhibition against FCP/SCP phosphatases using pNPP as a substrate
- colorimetric pNPP phosphatase assay, absorbance 410 nm (Fcp1): inhibitory effects of FG-1Adn inhibition against FCP/SCP phosphatases using pNPP as a substrate

- Kd (FG-1Adn (human)): 48.7 nM
B1: Scp1 (enzyme)
chain: MDSSAVITQISKEEARGPLRGKGDQKSAASQKPRSRGILHSLFCCVCRDDGEALPAHSGAPLLVEENGAIPKQTPVQYLLPEAKAQDSDKICVVIDLDETLVHSSFKPVNNADFIIPVEIDGVVHQVYVLKRPHVDEFLQRMGELFECVLFTASLAKYADPVADLLDKWGAFRARLFRESCVFHRGNYVKDLSRLGRDLRRVLILDNSPASYVFHPDNAVPVASWFDNMSDTELHDLLPFFEQLSRVDDVYSVLRQPRPGS
